These results are taken from patent US10005733B2, “N-(4-hydroxy-4-methyl-cyclohexyl)-4-phenyl-benzenesulfonamide and N-(4-hydroxy-4-methyl-cyclohexyl)-4-(2-pyridyl)-benzenesulfonamide compounds and their therapeutic use” (PIMCO 2664 LIMITED, priority 2014, dated 2018).

Read-outs that look alike come from different tables or passages of the source. A value given as a limit tells only on which side of the number the result lay.

Series [1] has as its target T1, CYP3A4 (Homo sapiens, UniProt P08684).
T1 construct: purchased Cypex Ltd, Dundee, Scotland UK
The series is described as follows: Human Cytochrome P450 Inhibition Assay (Bactosomes), CYP3A4. Type of series: in vitro ADME. The following applies: recombinant Bactosomes, probe substrate, 10 minutes at 37° C. As to the method:
The ability of test compounds to inhibit five of the most relevant cytochrome P450 enzymes was measured by determination of the activity of cytochrome P450 enzymes in recombinant cytochrome preparations, called Bactosomes (Cypex Ltd, Dundee, Scotland UK DD2 1NH), in the presence of a specific probe substrate. Bactosomes are a highly efficient and cost-effective source of recombinant CYP450s which have a higher specific activity of enzyme compared to other sources, such as liver microsomes. […] The following CYP450 isoforms were assayed: CYP1A2, CYP2C9, CYP2C19, CYP2D6 and CYP3A4. The study of CYP450 inhibition potential in Bactosomes is accepted as a valuable model permitting rapid prediction of potential drug-drug interactions in vivo (see, e.g., Weaver et al., 2003).
Bactosomes were obtained from a commercial source (Cypex, Scotland, UK). Test compounds were incubated with Bactosomes at 6 concentrations. Samples were incubated for 10 minutes, after which the reaction was stopped and the samples analysed by LC-MS/MS Multiple Reaction Monitoring (MRM) for the presence/amount of substrate probe.
CYP450 enzymes (final protein 75 pmol/mL for CYP1A2; 12.5 pmol/mL for CYP2C19; and 25 pmol/mL for CYP2C9, 2D6 and 3A4), 0.1 M phosphate buffer pH 7.4, probe and test compound (final concentration 50, 15.8, 5, 1.58, 0.5 and 0.158 μM; diluted from 10 mM stock solution to give a final DMSO concentration of 1%) were pre-incubated at 37° C. for 5 minutes. The reaction was initiated by the addition of 20 μL of 10 mM NADPH in phosphate buffer. The final incubation volume was 200 μL. The following control inhibitors were used for each CYP450 inhibition assay: CYP1A2: α-naphthoflavone; CYP2C9: sulfaphenazole; CYP2C19: tranylcypromine; CYP2D6: quinidine; CYP3A4: ketoconazole.
Each compound was incubated for 10 minutes at 37° C. The reactions were stopped by the addition of methanol (final composition 1:1, aqueous: methanol). The incubation plates were shaken, chilled at […] for 2 hours, and centrifuged at 3500 rpm for 15 minutes at 4° C. to precipitate the protein.
IC50 values were determined by linear transformation within Microsoft Excel.

The nature of series [2]: Rodent Pharmacokinetics Studies. To be noted: for bioavailability / half-life: rat, plasma; for bioavailability: read-out: Bioavail, F (%). Type of series: in vivo, rat. As to the method:
Absorption and metabolic stability were studied using an in vivo pharmacokinetics assay.
[…] […] For compound HMC-C-01-A the oral administration was formulated in 2% dimethylacetamide/20% hydroxypropyl-β-cyclodextrin in water. Animals were given free access to food throughout the study except for fasting overnight and until 2 hours post dose on the day of dosing.
Blood samples were taken from the retro-orbital plexus at the following time points and placed in microtubes containing 20% K2EDTA solution: […]
Blood samples were centrifuged to obtain plasma, which was transferred to a separate container and frozen at −20° C.
For analysis, samples were thawed at room temperature and prepared by protein precipitation with acetonitrile spiked with internal standard (500 ng/mL glipizide) in the ratio 1:4 with plasma. The samples were then vortexed for 5 minutes and centrifuged for 10 minutes at 20,600×g at 4° C. 100 μL of the supernatant was collected for analysis.
The pharmacokinetic parameters for the test compounds were calculated by Phoenix WinNonlin version 6.3 (Pharsight Corp, CA) using standard non-compartmental methods. Peak plasma concentrations (Cmax) and time of the peak plasma concentration (Tmax) were the observed values. The area under the plasma concentration-time curve (AUC) was determined by use of the linear trapezoidal rule up to the last measurable concentration (AUClast) and thereafter by extrapolation of the terminal elimination phase to infinity (AUCinf). The terminal elimination rate constant (kel) was determined by regression analysis of the linear terminal portion of the log plasma concentration-time curve. The elimination phase half-life (t1/2) was calculated as 0.693/kel.

Series [3] deals with mice with collagen-induced arthritis. The series is described as follows: Mouse Collagen-Induced Arthritis. Type of series: in vivo. The following applies: for % inhibition of disease: oral gavage once daily for 14 days, arthritic index vs control. Here is the method:
Seven- to eight-week-old male DBA/1j mice were used for all procedures. Animals were housed in groups of 10, and were maintained at 21° C.±2° C. on a 12-hour light/dark cycle with food and water ad libitum. Complete Freund's adjuvant (CFA) was prepared by emulsifying bovine type II collagen at 4 mg/mL with a 4 mg/mL suspension of Mycobacterium tuberculosis H37Ra in Incomplete Freund's adjuvant (IFA) (0.85 mL paraffin oil and 0.15 mL mannide monooleate) in a 1:1 (v/v) ratio. All mice were immunised subcutaneously with 200 μg of bovine type II collagen in CFA. 21 days later, all mice were immunised subcutaneously with 100 μg of bovine type II collagen in IFA. The mice started to develop signs and symptoms of arthritis following the ‘booster’ immunisation.
For macroscopic assessment of arthritis, the following signs were monitored in each paw of each mouse three times per week and summed to generate the Arthritic Index (AI) (the maximum AI for one animal is 16): • 0=no visible effects of arthritis. • 1=oedema and/or erythema of 1 digit. • 2=oedema and/or erythema of 2 digits. • 3=oedema and/or erythema of more than 2 digits. • 4=severe arthritis of entire paw and digits.
Animals were sorted into treatment groups with a mean arthritic index of 2.5 and then dosed once daily for 14 days with compound by oral gavage for test compounds, or by subcutaneous injection at a dose of 10 mg/kg for the positive control, etanercept. After completion of the experiment, the mice were sacrificed.
The data were analysed by generating an average of the arthritic index across each treatment group. The mean arthritic index was then compared to the arthritic index of control (untreated) animals using the following formula to generate a percentage inhibition of disease.

[4] abbreviates: male Han Wistar rats, 1 mg/kg intravenous, 5% DMSO/10% solutol in saline.
Where [5] appears, read: male Han Wistar rats, 5 mg/kg orally, 0.5% CMC/0.1% Tween-80.
[6] abbreviates: 5 mg/kg, male Han Wistar rats, oral in 0.5% CMC/0.1% Tween-80, i.v. in 5% DMSO/10% solutol in saline.

T1 sequence (P08684 whole entry): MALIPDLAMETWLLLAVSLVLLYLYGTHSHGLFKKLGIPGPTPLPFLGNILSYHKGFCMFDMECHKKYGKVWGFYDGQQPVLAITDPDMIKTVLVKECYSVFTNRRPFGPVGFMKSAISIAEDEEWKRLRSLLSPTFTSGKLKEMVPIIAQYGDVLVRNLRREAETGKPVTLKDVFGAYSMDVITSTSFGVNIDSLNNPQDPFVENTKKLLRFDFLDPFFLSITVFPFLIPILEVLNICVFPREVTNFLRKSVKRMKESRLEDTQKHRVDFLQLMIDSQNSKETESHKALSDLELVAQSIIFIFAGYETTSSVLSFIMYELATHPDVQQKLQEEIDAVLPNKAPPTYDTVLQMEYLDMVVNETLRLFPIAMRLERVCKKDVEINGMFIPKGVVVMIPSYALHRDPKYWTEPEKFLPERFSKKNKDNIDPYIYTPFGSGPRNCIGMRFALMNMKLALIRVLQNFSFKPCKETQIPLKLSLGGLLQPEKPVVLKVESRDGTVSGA

Regarding `O=S(=O)(N[C@H]1CC[C@H](O)CC1)c1ccc(-c2ccc(F)cc2F)cc1` [ABD599, reference compound], in series [1], the IC50 is more than 25 µM.

`Cc1cc(S(=O)(=O)N[C@H]2CC[C@H](O)CC2)ccc1-c1ccc(F)cc1F` [ABD735, reference compound]: the IC50 in series [1] is more than 25 µM. In addition, the “i.v. AUC” value in series [2] (setting [4]) came to 1081 ng/mL/min. Also, the “p.o. AUC (ng/mL/min)” value in series [2] (setting [5]) was 8965 ^(4) ng/mL/min. Also, in series [2] (setting [6]), the bioavailability amounted to 83%. Besides, the “% inhibition of disease” value in series [3] (10 mg/kg/day) is on record as 44%.

With `C[C@]1(O)CC[C@@H](NS(=O)(=O)c2ccc(-c3ccc(F)cc3F)cc2)CC1` [ABD899, reference compound], in series [1], the IC50 came out at 21.6 µM. Moreover, the “i.v. AUC” value in series [2] (setting [4]) came to 2133 ng/mL/min. Moreover, the “p.o. AUC (ng/mL/min)” value in series [2] (setting [5]) is listed as 10740 ^(4) ng/mL/min. In addition, the bioavailability in series [2] (setting [6]) was 50%. Also, in series [3] (10 mg/kg/day), the “% inhibition of disease” value was 77%.

Regarding `C[C@]1(O)CC[C@H](NS(=O)(=O)c2ccc(-c3ccc(C#N)cc3)c(F)c2)CC1` [HMC-C-07-A, 4′-Cyano-2-fluoro-N-((1r,4r)-4-hydroxy-4-methylcyclohexyl)-[1,1′-biphenyl]-4-sulfonamide], the IC50 in series [1] was more than 50 µM.

Turning to `C[C@]1(O)CC[C@@H](NS(=O)(=O)c2ccc(-c3ccc(C#N)cc3)c(F)c2)CC1` [HMC-C-07-B, 4′-Cyano-2-fluoro-N-((1s,4s)-4-hydroxy-4-methylcyclohexyl)-[1,1′-biphenyl]-4-sulfonamide], the IC50 in series [1] was more than 50 µM. The bioavailability was 86% in series [2] (male, Han Wistar, iv, 5 mg/kg, rats, footnote (3): i.v. samples at 0.03, 0.1, 0.167, 0.25, 0.5, 1, 2, 4, 6, 8, 24 hours); 100% in series [2] (male, Han Wistar, rats, footnotes (1)(2): 5% DMSO/10% solutol in saline for both routes, sampling incl. 23 and 24 hours, oral 10 mg/kg). The half-life was 9.7 h in series [2] (male, Han Wistar, rats, footnotes (1)(2): 5% DMSO/10% solutol in saline for both routes) and 9 h in series [2] (male, Han Wistar, rats, study of footnote (3)). Further, the “i.v. AUC” value in series [2] (rats, 1 mg/kg i.v., footnote (3): i.v. samples at 0.03, 0.1, 0.167, 0.25, 0.5, 1, 2, 4, 6, 8, 24 hours) is 11627 ng/mL/min; in series [2] (rats, footnotes (1)(2): 1 mg/kg i.v. in 5% DMSO/10% solutol in saline, sampling incl. 23 and 24 hours), 24072 ng/mL/min. Moreover, in series [2] (rats, 5 mg/kg orally, study of footnote (3)), the “p.o. AUC” value is 39463 ng/mL/min. The “p.o. AUC (ng/mL/min)” value in series [2] (rats, footnotes (1)(2)(5): dosed at 10 mg/kg orally in 5% DMSO/10% solutol in saline) is 146299 ^(5) ng/mL/min. Also, the “% inhibition of disease” value was 16% in series [3] (0.3 mg/kg/day) and 56% in series [3] (3 mg/kg/day). Also, the “signs and symptoms of disease (in words)” value in series [3] (compared with Etanercept (10 mg/kg s.c.), FIG. 1 and 2) is “able to reduce signs and symptoms of disease in mice with collagen-induced arthritis to a similar extent as the clinically utilised treatment, Etanercept”.

Consider `C[C@]1(O)CC[C@H](NS(=O)(=O)c2ccc(-c3ccc(Cl)cc3C#N)c(F)c2)CC1` [HMC-C-08-A, 4′-Chloro-2′-cyano-2-fluoro-N-((1r,4r)-4-hydroxy-4-methylcyclohexyl)-[1,1′-biphenyl]-4-sulfonamide], for which the IC50 in series [1] is 29 µM.

For the compound `C[C@]1(O)CC[C@H](NS(=O)(=O)c2ccc(-c3ccc(C#N)cc3Cl)cc2)CC1` [HMC-C-09-A, 2′-Chloro-4′-cyano-N-((1r,4r)-4-hydroxy-4-methylcyclohexyl)-[1,1′-biphenyl]-4-sulfonamide], the IC50 in series [1] was determined as 33 µM.

Turning to `C[C@]1(O)CC[C@@H](NS(=O)(=O)c2ccc(-c3cc(F)c(F)cc3F)cc2)CC1` [HMC-C-10-B, 2′,4′,5′-Trifluoro-N-((1s,4s)-4-hydroxy-4-methylcyclohexyl)-[1,1′-biphenyl]-4-sulfonamide], the IC50 in series [1] was found to be 9.2 µM.

For `C[C@]1(O)CC[C@H](NS(=O)(=O)c2ccc(-c3ccc(Cl)cc3C#N)c(Cl)c2)CC1` [HMC-C-11-A, 2,4′-Dichloro-2′-cyano-N-((1r,4r)-4-hydroxy-4-methylcyclohexyl)-[1,1′-biphenyl]-4-sulfonamide], in series [1], the IC50 stood at 12 µM.

Regarding `C[C@]1(O)CC[C@H](NS(=O)(=O)c2ccc(-c3ncc(Cl)cc3C#N)cc2)CC1` [HMC-N-05-A, 4-(5-Chloro-3-cyanopyridin-2-yl)-N-((1r,4r)-4-hydroxy-4-methylcyclohexyl)benzenesulfonamide], in series [1], the half-inhibitory concentration (IC50) was more than 50 µM. Also, the bioavailability in series [2] (male, Han Wistar, 5 mg/kg, rats, footnote (1): 5% DMSO/10% solutol in saline for both oral and intravenous routes) came to 88%. The compound further gave a half-life in series [2] (male, Han Wistar, rats, footnote (1): 5% DMSO/10% solutol in saline for both routes) of 0.8 h. Also, the “i.v. AUC” value in series [2] (rats, 1 mg/kg i.v., footnote (1): 5% DMSO/10% solutol in saline) was found to be 891 ng/mL/min. In series [2] (rats, 5 mg/kg orally, footnote (1): 5% DMSO/10% solutol in saline), the “p.o. AUC” value is given as 3937 ng/mL/min.

The term IC50 denotes the concentration that gives 50% inhibition. By half-life is commonly meant the time needed for the level to fall by half in the phase considered. A high value points to slow decline.
